Experiment: xn = mol fraction of the nth substance listed
Settings: 101.33 kPa, Liquid; for viscosity: Capillary tube (Ostwald / Ubbelohde) method

C1CCCC1 [cyclopentane] + CCOC(=O)OCC
Settings	mass density [kg/m3]	speed of sound [m/s]	viscosity [mPa·s]
293.15 K, x2 = 0	744.43	1232	0.438
293.15 K, x2 = 0.0491	757.21	1219	0.44
293.15 K, x2 = 0.0999	770.43	1209	0.445
293.15 K, x2 = 0.1898	793.45	1196	0.462
293.15 K, x2 = 0.2872	817.88	1186	0.486
293.15 K, x2 = 0.3894	842.77	1180	0.518
293.15 K, x2 = 0.5009	868.92	1178	0.559
293.15 K, x2 = 0.6023	891.92	1179	0.601
293.15 K, x2 = 0.7021	913.9	1181	0.646
293.15 K, x2 = 0.8053	935.69	1186	0.696
293.15 K, x2 = 0.9032	955.62	1191	0.748
293.15 K, x2 = 0.952	965.36	1194	0.778
298.15 K, x2 = 0	739.47	1206	0.415
298.15 K, x2 = 0.0491	752.18	1194	0.416
298.15 K, x2 = 0.0999	765.34	1184	0.421
298.15 K, x2 = 0.1898	788.24	1172	0.437
298.15 K, x2 = 0.2872	812.58	1163	0.459
298.15 K, x2 = 0.3894	837.37	1157	0.489
298.15 K, x2 = 0.5009	863.47	1156	0.527
298.15 K, x2 = 0.6023	886.43	1157	0.564
298.15 K, x2 = 0.7021	908.38	1160	0.606
298.15 K, x2 = 0.8053	930.14	1165	0.654
298.15 K, x2 = 0.9032	950.04	1170	0.699
298.15 K, x2 = 0.952	959.78	1174	0.726
303.15 K, x2 = 0	734.47	1180	0.394
303.15 K, x2 = 0.0491	747.11	1169	0.396
303.15 K, x2 = 0.0999	760.19	1159	0.399
303.15 K, x2 = 0.1898	782.99	1147	0.414
303.15 K, x2 = 0.2872	807.23	1139	0.435
303.15 K, x2 = 0.3894	831.95	1134	0.461
303.15 K, x2 = 0.5009	857.97	1133	0.496
303.15 K, x2 = 0.6023	880.91	1135	0.532
303.15 K, x2 = 0.7021	902.82	1138	0.57
303.15 K, x2 = 0.8053	924.56	1144	0.615
303.15 K, x2 = 0.9032	944.44	1150	0.655
303.15 K, x2 = 0.952	954.16	1153	0.68
308.15 K, x2 = 0	729.42	1154	0.374
308.15 K, x2 = 0.0491	741.99	1144	0.375
308.15 K, x2 = 0.0999	755	1134	0.379
308.15 K, x2 = 0.1898	777.7	1123	0.393
308.15 K, x2 = 0.2872	801.84	1115	0.412
308.15 K, x2 = 0.3894	826.49	1112	0.436
308.15 K, x2 = 0.5009	852.45	1111	0.47
308.15 K, x2 = 0.6023	875.35	1113	0.502
308.15 K, x2 = 0.7021	897.23	1117	0.537
308.15 K, x2 = 0.8053	918.94	1123	0.578
308.15 K, x2 = 0.9032	938.8	1129	0.616
308.15 K, x2 = 0.952	948.52	1133	0.638
313.15 K, x2 = 0	724.32	1129	0.355
313.15 K, x2 = 0.0491	736.82	1119	0.356
313.15 K, x2 = 0.0999	749.76	1110	0.36
313.15 K, x2 = 0.1898	772.35	1099	0.373
313.15 K, x2 = 0.2872	796.39	1092	0.391
313.15 K, x2 = 0.3894	820.95	1089	0.414
313.15 K, x2 = 0.5009	846.9	1089	0.444
313.15 K, x2 = 0.6023	869.75	1091	0.475
313.15 K, x2 = 0.7021	891.61	1096	0.508
313.15 K, x2 = 0.8053	913.29	1102	0.545
313.15 K, x2 = 0.9032	933.14	1109	0.58
313.15 K, x2 = 0.952	942.85	1112	0.6

Source: the NIST ThermoML archive (doi:10.1021/je049895b)
